Target: T1, human renal renin (Homo sapiens, UniProt P00797)
T1 construct: human renal renin, free from acid proteolytic activity; from tissue; host or cells: human kidney (from the word 'renal')
T1 sequence (P00797 67-406): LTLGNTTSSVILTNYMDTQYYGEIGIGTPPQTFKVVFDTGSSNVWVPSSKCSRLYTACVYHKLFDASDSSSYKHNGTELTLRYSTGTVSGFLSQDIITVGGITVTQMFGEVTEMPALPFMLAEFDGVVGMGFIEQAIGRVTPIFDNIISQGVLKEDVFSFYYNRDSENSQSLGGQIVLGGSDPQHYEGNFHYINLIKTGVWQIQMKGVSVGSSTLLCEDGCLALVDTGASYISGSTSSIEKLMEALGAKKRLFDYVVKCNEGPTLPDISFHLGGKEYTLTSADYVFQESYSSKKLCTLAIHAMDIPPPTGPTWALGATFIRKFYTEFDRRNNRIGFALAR
Assay: Inhibition of human renal renin in vitro (angiotensin I formed, measured by radioimmunoassay)
Format: biochemical
Settings: human renal renin with renin substrate (human angiotensinogen), 37° C., pH 6.0
Description: At the end of the incubation, the amount of angiotensin I formed is measured by radioimmunoassay and the molar concentration required to cause 50% inhibition, expressed as the IC50 is calculated.

`CCCC[C@H](NC(=O)C(Cc1ccccc1)Cn1ccnc1)C(=O)N[C@@H](CC1CCCCC1)[C@@H](O)[C@H]1OC[C@@H]1CC` (mixture of isomers) [Example 154, (2RS)-2-Benzyl-3-(imidazol-1-yl)propionyl-(nor)Leucine Amide of (1R,2S,2'S,3'S)-2-Amino-3-cyclohexyl-1-[3'-(ethyl)oxetan-2'-yl]-1-(hydroxy)propane] gave an IC50 of 0.7 nM.
With `CC[C@H]1CO[C@@H]1[C@H](O)[C@H](CC1CCCCC1)NC(=O)C(Cc1cnc[nH]1)NC(=O)C(Cc1ccccc1)NC(=O)OC(C)(C)C` (stereo partly drawn) [Example 40, Boc-Phe-His Amide of (1R,2S,2'S,3'S)-2-Amino-3-cyclohexyl-1-[3'-(ethyl)oxetan-2'-yl]-1-(hydroxy)propane] the IC50 was 0.47 nM.
For `CC(C)[C@H]1CO[C@@H]1[C@H](O)[C@H](CC1CCCCC1)NC(=O)[C@H](Cc1cnc[nH]1)NC(=O)[C@H](Cc1ccccc1)NC(=O)OC(C)(C)C` [Example 41, Boc-Phe-His Amide of (1R,2S,2'S,3'S)-2-Amino-3-cyclohexyl-1-hydroxy-1-[3'-(isopropyl)oxetan-2'- yl]propane], the IC50 was 0.61 nM.
Work on `CCC[C@H]1CO[C@@H]1[C@H](O)[C@H](CC1CCCCC1)NC(=O)C(Cc1cnc[nH]1)NC(=O)C(Cc1ccccc1)NC(=O)OC(C)(C)C` (stereo partly drawn) [Example 43, Boc-Phe-His Amide of (1R,2S,2'S,3'S)-2-Amino-3-cyclohexyl-1-hydroxy-1-[3'-(propyl)oxetan-2'-yl]propane] yielded an IC50 of 0.38 nM.
`CC(C)C[C@H]1CO[C@@H]1[C@H](O)[C@H](CC1CCCCC1)NC(=O)[C@H](Cc1cnc[nH]1)NC(=O)[C@H](Cc1ccccc1)NC(=O)OC(C)(C)C` [Example 44, Boc-Phe-His Amide of (1R,2S,2'S,3'S)-2-Amino-3-cyclohexyl-1-hydroxy-1-[3'-(isobutyl)oxetan-2'-yl]propane] gave an IC50 of 1.1 nM.
`CC(C)(C)OC(=O)NC(Cc1ccccc1)C(=O)NC(Cc1cnc[nH]1)C(=O)N[C@@H](CC1CCCCC1)[C@@H](O)[C@@H]1CCO1` (stereo partly drawn) [Example 45, Boc-Phe-His Amide of (1R,2S,2'S)-2-Amino-3-cyclohexyl-1-hydroxy-1-(oxetan-2'-yl)propane] was tested, and the IC50 was 1.2 nM.
`C[C@H]1CO[C@@H]1[C@H](O)[C@H](CC1CCCCC1)NC(=O)C(Cc1cnc[nH]1)NC(=O)C(Cc1ccccc1)NC(=O)OC(C)(C)C` (stereo partly drawn) [Example 46, Boc-Phe-His Amide of (1R,2S,2'S,3'S)-2-Amino-3-cyclohexyl-1-hydroxy-1-[3'-(methyl)oxetan-2'-yl]propane] showed an IC50 of 0.51 nM.
Work on `CC([C@H]1CO[C@@H]1[C@H](O)[C@H](CC1CCCCC1)NC(=O)[C@H](Cc1cnc[nH]1)NC(=O)[C@H](Cc1ccccc1)NC(=O)OC(C)(C)C)C(F)(F)F` (stereo partly drawn) [Example 47, Boc-Phe-His Amide of (1R,2S,2'S,3'S)-2-Amino-3-cyclohexyl-1-hydroxy-1-[3'-(1,1,1-trifluoroisopropyl)oxetan-2'-yl]propane] yielded an IC50 of 1.2 nM.
Work on `CC(C)(C)OC(=O)N[C@@H](Cc1ccccc1)C(=O)N[C@@H](Cc1cnc[nH]1)C(=O)N[C@@H](CC1CCCCC1)[C@@H](O)[C@H]1OCC1(C)C` [Example 48, Boc-Phe-His Amide of (1R,2S,2'S)-2-Amino-3-cyclohexyl-1-[3',3'-(dimethyl)oxetan-2'-yl]-1-(hydroxy)propane] yielded an IC50 of 1 nM.
With `CC[C@H]1CO[C@@H]1[C@H](O)[C@H](CC1CCCCC1)NC(=O)C(Cc1cscn1)NC(=O)[C@H](Cc1ccccc1)CS(=O)(=O)N1CCN(C)CC1` (stereo partly drawn) [Example 68, (2S) 2-Benzyl-3-(1-methyl-piperazin-4-ylsulfonyl)propionyl-(4-thiazolyl)alanineAmide of (1R,2S,2'S,3'S)-2-Amino-3-cyclohexyl-1-[3'-(ethyl)oxetan-2'-yl]-1-(hydroxy)propane] the IC50 was 0.19 nM.
`CC[C@H]1CO[C@@H]1[C@H](O)[C@H](CC1CCCCC1)NC(=O)[C@H](Cc1cscn1)NC(=O)[C@@H](CC(=O)N1CCOCC1)Cc1ccccc1` [Example 69, (2R)-2-Benzyl-3-(morpholinocarbonyl)propionyl-(4-thiazolyl)alanine Amide of (1R,2S,2'S,3'S)-2-Amino-3-cyclohexyl-1-[3'-(ethyl)oxetan-2'-yl]-1-(hydroxy)propane] showed an IC50 of 0.25 nM.
